Series [1] has as its target T1, human cannabis CB1 receptor (Homo sapiens, UniProt P21554).
T1 construct: expressed in transfected cells; host or cells: human embryonic kidney (HEK) cells, Semliki Forest Virus system
Nature of the series: Affinity for cannabinoid CB1 receptors, [3H]-CP-55,940 radioligand binding on HEK cell membranes. As for the experimental part: The affinity of the compounds of the invention for cannabinoid CB1 receptors was determined using membrane preparations of human embryonic kidney (HEK) cells in which the human cannabis CB1 receptor is transiently transfected using the Semliki Forest Virus system in conjunction with [3H]-CP-55,940 as radioligand. After incubation of a freshly prepared cell membrane preparation with the [3H]-ligand, with or without addition of compounds of the invention, separation of bound and free ligand was performed by filtration over glassfiber filters. Radioactivity on the filter was measured by liquid scintillation counting.

For series [2] the following is noted: doses of 5, 10 and 20 mg daily; cited from earlier work.
[3] abbreviates: affinity for the CB1 receptor, read-out: IC50.

Like-named read-outs stand apart in the source and are kept apart here.

In general, IC50 refers to the concentration that inhibits the measured activity by half. What is called melting point is the temperature of the solid-liquid transition.

T1 sequence (P21554 whole entry): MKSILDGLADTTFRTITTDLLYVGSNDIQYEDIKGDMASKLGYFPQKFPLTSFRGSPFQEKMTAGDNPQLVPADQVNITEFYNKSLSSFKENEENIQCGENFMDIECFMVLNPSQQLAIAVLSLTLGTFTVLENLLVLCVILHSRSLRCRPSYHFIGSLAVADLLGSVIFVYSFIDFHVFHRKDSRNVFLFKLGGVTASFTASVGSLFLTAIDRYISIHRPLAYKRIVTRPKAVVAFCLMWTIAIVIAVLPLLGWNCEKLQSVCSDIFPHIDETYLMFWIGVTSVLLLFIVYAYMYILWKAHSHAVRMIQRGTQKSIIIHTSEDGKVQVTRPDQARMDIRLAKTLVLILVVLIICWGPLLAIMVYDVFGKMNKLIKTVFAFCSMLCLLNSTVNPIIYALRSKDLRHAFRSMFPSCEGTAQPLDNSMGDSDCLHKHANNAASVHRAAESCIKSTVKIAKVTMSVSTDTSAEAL

Regarding `O=S(=O)(c1ccc2c(c1)OC(c1ccccc1)(c1ccccc1)O2)N1CCCN(c2ncc(C(F)(F)F)cc2Cl)CC1` [Example 22, 1-(3-chloro-5-trifluoromethyl-pyridin-2-yl)-4-(2,2-diphenyl-benzo[1,3]dioxole-5-sulfonyl)-[1,4]diazepane], the IC50 in series [1] (setting [3]) is < 2000 nM.

For `Fc1ccc(C2=CCN(Cc3ccc4c(c3)OC(c3ccccc3)(c3ccccc3)O4)CC2)cc1` [Example 75, 1-(2,2-diphenyl-benzo[1,3]dioxol-5-yl-methyl)-4-(4-fluoro-phenyl)-1,2,3,6-tetrahydro-pyridine], the IC50 in series [1] (setting [3]) is < 2000 nM.

Turning to `O=C(c1ccc2c(c1)OC(c1cccc(Cl)c1)(c1cccc(Cl)c1)O2)N1CCCCC1`, the melting point was determined as 54 °C.

As for `O=C(c1ccc2c(c1F)OC(c1ccccc1)(c1ccccc1)O2)N1CCOCC1` [Example 65, (4-fluoro-2,2-diphenyl-benzo[1,3]dioxol-5-yl)-morpholin-4-yl-methanone], the IC50 in series [1] (setting [3]) was < 2000 nM.

In the case of `O=C(c1cc2c(cc1F)OC(c1ccccc1F)(c1ccccc1F)O2)N1CC[C@H](O)C1` [Example 271], the IC50 in series [1] (setting [3]) was < 2000 nM.

For `O=S(=O)(c1ccc2c(c1)OC(c1ccc(F)cc1)(c1ccc(Cl)cc1Cl)O2)N1CCCCC1` (racemic) [Example 39, 1-[2-(2,4-dichloro-phenyl)-2-(4-fluoro-phenyl)-benzo[1,3]dioxole-5-sulfonyl]-piperidine], the IC50 in series [1] (setting [3]) was < 2000 nM.

As for `O=S(=O)(NCc1ccccc1)c1ccc2c(c1)OC(c1ccccc1)(c1ccccc1)O2` [Example 20, 2,2-diphenyl-benzo[1,3]dioxole-5-sulfonic acid benzylamide], the IC50 in series [1] (setting [3]) is < 2000 nM.

As for `O=C(c1ccc2c(c1)OC(c1ccccc1)(c1ccccc1)O2)N1CCC2(CC1)OCCO2` [Example 46, (1,4-dioxa-8-aza-spiro[4.5]dec-8-yl)-(2,2-diphenyl-benzo[1,3]dioxol-5-yl)-methanone], the IC50 in series [1] is < 2000 nM.

As to `O=S(=O)(c1ccc2c(c1)OC(c1ccccc1)(c1ccccc1)O2)N1CCN(c2ccc(Cl)cc2Cl)CC1` [Example 4, 1-(2,4-dichloro-phenyl)-4-(2,2-diphenyl-benzo[1,3]dioxole-5-sulfonyl)-piperazine], the IC50 in series [1] (setting [3]) is < 2000 nM.

On to `O=C(c1cc2c(cc1F)OC(c1ccc(F)cc1)(c1ccc(F)cc1)O2)N1CCCC1` [Example 164, [6-fluoro-2,2-bis-(4-fluoro-phenyl)-benzo[1,3]dioxol-5-yl]-pyrrolidin-1-yl-methanone], for which the IC50 in series [1] (setting [3]) was < 2000 nM.

With `O=C(c1cc2c(cc1F)OC(c1ccccc1Cl)(c1ccccc1Cl)O2)N1CCOCC1`, the melting point was found to be 98 °C.

With `Cc1c(C(=O)NN2CCCCC2)nn(-c2ccc(Cl)cc2Cl)c1-c1ccc(Cl)cc1` [SR 141716, Rimonabant], in series [2], the “body weight compared to placebo” value is “significantly reduced body weight”.

Consider `O=C(c1cc2c(cc1F)OC(c1ccc(F)cc1)(c1ccc(Cl)cc1Cl)O2)N1CCOCC1` (stereo not drawn) [Example 108, [2-(2,4-dichloro-phenyl)-6-fluoro-2-(4-fluoro-phenyl)-benzo[1,3]dioxol-5-yl]-morpholin-4-yl-methanone], for which the IC50 in series [1] (setting [3]) was < 2000 nM.

Take `O=S(=O)(c1ccc2c(c1)OC(c1ccccc1)(c1ccccc1)O2)N1CCc2ccccc2C1` [Example 18, 2-(2,2-diphenyl-benzo[1,3]dioxole-5-sulfonyl)-1,2,3,4-tetrahydro-isoquinoline]: the IC50 in series [1] (setting [3]) was < 2000 nM.

On to `O=S(=O)(c1cc2c(cc1F)OC1(O2)c2ccccc2CCc2ccccc21)N1CCOCC1` [Example 234], for which the IC50 in series [1] (setting [3]) is < 2000 nM.

Source of the values: patent US7576088B2, “Benzodioxole derivatives” (Hoffman-La Roche Inc., priority 2002, dated 2009).
